Results from patent EP2012764B1, “PHARMACEUTICAL COMBINATION COMPRISING 3-(3-DIMETHYLAMINO-1-ETHYL-2-METHYL-PROPYL) -PHENOL AND PARACETAMOL” (Grünenthal GmbH, priority 2006, dated 2007).

Test system: inflammatory pain
Test: Randall-Selitto test in rats (carrageenin-induced paw oedema, pressure at vocalisation, %MPE; isobolographic analysis)
Assay type: in vivo, rat
Protocol: The weight ratios of the components (a) and (b) that will lead to a supra-additive effect (synergistic effect) of the inventive pharmaceutical composition may be determined via the test of Randall and Selitto as described in Arch. Int. Pharmacodyn., 1957, 111: 409 to 419, which is a model for inflammatory pain. The respective part of the literature is hereby incorporated by reference and forms part of the present disclosure.
By means of injection of 0.1 ml of Carrageenin-suspension ventrally into a hind paw of a rat an oedema is induced, on which pain is generated 4 hours later by continuously increasing pressure with a stamp (2 mm tip diameter). The antinociceptive and antihyperalgesic activity of the tested substance is determined at different points in time after administration of the substance. The measured value to be determined and at the same time also the end point of the pain test is the pressure at which the vocalisation reaction of the rat occurs. The percentage maximum possible effect (%MPE) is calculated. The maximum pressure of the stamp is 250 g. The group size is n = 10.
The interactions studies presented herein were performed using equieffective doses of the two components, calculated from the ratio of the respective ED50 values of the components if administered alone.
The application route was intravenous (i.v.) for (1R,2R)-3-(3-Dimethylamino-1-ethyl-2-methyl-propyl)-phenol (A) and intraperitoneal (i.p.) for Paracetamol. […] According to their respective timepoint of peak effect, (1R,2R)-3-(3-Dimethylamino-1-ethyl-2-methyl-propyl)-phenol was applied 15 min and Paracetamol 120 min before timepoint of measurement of the interaction-experiments (i. e. Paracetamol was applied 105 min before (1R,2R)-3-(3-Dimethylamino-1-ethyl-2-methyl-propyl)-phenol, respectively). Thus, the time point of ED50 calculation of the combination corresponds to the timepoint of the peak effect of the respective compound.

Row | SMILES | timepoint of peak effect (A alone, i.v., timepoint of first measurement) [min p. appl.] | timepoint of peak effect (Paracetamol alone, i.p.) [min p. appl.] | ED50 (confidence interval) (Paracetamol alone, i.p., 120 min p. appl. (peak effect), rat, n = 10, 120 min) | ED50 (Rattus norvegicus, ip, 2 h, Paracetamol alone, i.p., 120 min p. appl. (peak effect), rat, n = 10, read-out: ED50 (confidence interval)) [mg/kg]
1 | CC[C@@H](c1cccc(O)c1)[C@@H](C)CN(C)C [A, (1R,2R)-3-(3-Dimethylamino-1-ethyl-2-methyl-propyl)-phenol] | 15 |  |  | 
2 | CC(=O)Nc1ccc(O)cc1 [Paracetamol] |  | 120 | 189,9 (181,3-198,4) mg/kg | 190
